Measured values: patent US20220143148A1, “COMPOSITIONS AND METHODS FOR MODULATING CGRP SIGNALING TO REGULATE INTESTINAL INNATE LYMPHOID CELLS” (The Broad Institute, Inc., priority 2019, published 2022)

System: intestinal ILC2s
Test: OVA food allergy model with intragastric α-CGRP
Format: in vivo, mouse
Settings: α-CGRP intragastrically together with OVA, pre-sensitized mice; P=0.02, P=0.009, t-test
Source text: Intraperitoneal administration of α-CGRP impaired IL-25-induced expansion of KLRG1^+ ILC2s (FIGS. 5B and 12A), consistent with the in vitro results. Recent work has shown that intestinal KLRG1^+ ILC2s can migrate to mesenteric lymph nodes (mLNs) and other tissues during inflammation via sphingosine 1-phosphate (S1P)-mediated chemotaxis (Huang et al., 2018). To determine whether α-CGRP primarily impacts intestinal or mLN ILC2s, Applicants relied on the fact that intestinal GATA3^+ ILC2s are generally phenotypically KLRG1^+ST2^− (data not shown), whereas mLN ILC2s are mainly ST2^+ at steady state (FIG. 5C). IL-25 administration increased the frequency of both KLRG1^+ST2^− inflammatory ILC2s and ST2^+ ILC2s in mLNs (FIGS. 5C-E and 12B). […] Thus, α-CGRP preferentially regulates the response of intestinal KLRG1^+ST2^− ILC2s. […] Taken together, α-CGRP antagonized expansion of intestinal KLRG1^+ ILC2s in two different type 2 inflammatory models.
To induce allergic reaction to OVA, 6 to 7 weeks old mice were sensitized twice, two weeks apart, with 50 μg of OVA plus 1 mg of aluminum potassium sulfate adjuvant via intraperitoneal injection. Two weeks later, mice were orally administered with 50 mg of OVA on every other day for a total of five times. […]
Flow cytometry and cell sorting. […] Flow cytometry was performed on Cytoflex (Beckman Coulter) and analyzed with FlowJo software. […]

α-CGRP: neuropeptide alpha-calcitonin gene-related peptide, encoded by exon 5 of Calca; administered as peptide
expansion of intestinal ILC2s in a food allergy model: significantly suppressed
